The subject of data set [1] is Plasmodium falciparum strain K1. The experiment in a line: In vitro IC50, 3H-hypoxanthine incorporation, P. falciparum K1. The class given is cell-based. The note with it: chloroquine-resistant Plasmodium falciparum strain K1.
For data set [2], the system named is P. falciparum strain 3D7-Netherlands. The experiment in a line: In vitro IC50, 3H-hypoxanthine incorporation, P. falciparum 3D7. Type of data set: cell-based, Plasmodium falciparum. To be noted: Plasmodium falciparum.
Another data set concerns K562. Briefly: Antiproliferative activity K562. To be noted: Homo sapiens, read-out: IC50 [μg/ml] Antiproliferative activity K562. Type of data set: cell-based.
The next data set in a line: Cytotoxicity HeLa. The note with it: human, HeLa cells.
In data set [3] the test system is Plasmodium berghei GFP MRA-865. Briefly: Plasmodium berghei infection in the mouse model (in vivo). To be noted: for life span in words: all dosages and routes of administration tested; for Activity (%): parasitemia day 4 vs untreated controls.
Another data set relates to L929. Briefly: Antiproliferative activity L929. The class given is cell-based. The note with it: Mus musculus, read-out: IC50 [μg/ml] Antiproliferative activity L929.
The subject of a further data set is adult S. mansoni. Briefly: In vitro treatment of adult S. mansoni couples, visual evaluation by microscope. More on the design: species or system Schistosoma mansoni. As for the experimental part: Compounds 2, 18 and 41 were tested by Prof. Dr. Grevelding, Parasitology, Veterinary Medicine, University of Gieβen, also in the parasite Schistosoma mansoni. […] Each test was performed with 3 groups of 10 worms each. Remarkable was that different effects on the worms with respect to morphological alterations could be observed. […] Exemplarily shown in FIGS. 1 and 2 is an image of a control assay and an image of trematodes after 48 hours of incubation with compound 18.
Each one of the three groups (one group per well) comprised 10 pairs of adult S. mansoni were incubated with the substance to be tested for 24 h. As control served three groups which were incubated with medium (M199) and three groups which were incubated with medium and DMSO as solvent of the test substances. Evaluation was done visually using a microscope.
In a second experimental setting, again three groups each (one group per well) with 8 pairs of adult S. mansoni each were incubated with the compound to be tested, however for 48 h in this experiment. As control served three groups which were either incubated with medium (M199) or medium and DMSO as solvent of the test substances. Evaluation was done visually using a microscope.

The subject of data set [4] is Trypanosoma brucei brucei S427. The experiment in a line: In vitro efficacy against Trypanosoma brucei. The class given is cell-based. The method, then:
Compounds 18 and 41 were assessed at the London School of Hygiene and Tropical Medicine in vitro with respect to their efficacy against the parasite Trypanosoma brucei brucei […].

[5] abbreviates: P. falciparum strain 3D7, read-out: IC50 [nM] P.f.(3D7).
Setting [6] is: 24 hours, 100 μM, 3 groups of 10 pairs.
The mark [7] stands for this setting: 48 hours, 20 μM, 3 groups of 8 pairs.
Where [8] appears, read: 48 hours, 100 μM, 3 groups of 8 pairs.
Setting [9] is: 3D7, read-out: IC50 [ng/ml] P.f.(3D7).

≈ marks a conversion by molar mass, not a printed value. Where “and” joins values, the source holds several entries; their conditions need not be identical. Equal entries are not always repeated. Entries after “also recorded” stand apart in the source; their conditions may differ. Where two headings read alike, the source gives them in different places.

Take `COc1ccc2c(c1)CCC1C2CC[C@@]2(C)C1CC[C@@H]2NCc1ccccc1O` (stereo partly drawn) [Compound 1, 17β-(2-Hydroxyphenyl-methylamino)-3-methoxy-estra-1,3,5(10)-triene]: the IC50 in data set [1] was 73 nM; in data set [2] (setting [5]), 50 nM; in data set [2] (P. falciparum strain 3D7, read-out: IC50 [ng/ml] P.f.(3D7)) it was 19.8 ng/mL; in the data set with K562, 0.8 µg/mL (≈ 2.04 µM); in “Cytotoxicity HeLa”, 11 µM and 4.3 µg/mL; in the data set with L929, 2.2 µg/mL (≈ 5.62 µM). Besides, in data set [3], the “life span in words” value is recorded as “considerably extended the life span”. Moreover, the “MSD (days)” value is 16.3 (n = 3) days in data set [3] (oral 3 × 100 mg/kg), 10.2 (n = 3) days in data set [3] (sc 3 × 10 mg/kg) and 15 (n = 3) days in data set [3] (sc 3 × 30 mg/kg). Besides, the “Activity (%)” value is on record as 99% in data set [3] (oral 3 × 100 mg/kg), 47% in data set [3] (sc 3 × 10 mg/kg) and 94% in data set [3] (sc 3 × 30 mg/kg).
`COc1ccc2c(c1)CCC1C2CC[C@@]2(C)C1CC[C@H]2NCc1ccccc1O` (stereo partly drawn) [Compound 2, 17α-(2-Hydroxyphenyl-methylamino)-3-methoxy-estra-1,3,5(10)-triene]: the “morphological alterations of the worms” value in the data set on adult S. mansoni is given as “ventrally curved in a cork-screw like manner”. Also, the egg production entry is given as “Almost no eggs were detectable” with adult S. mansoni (24 hours, 100 μM); “No eggs were detectable” with adult S. mansoni (48 hours, 20 μM); “No eggs were detectable” in the data set with adult S. mansoni (48 hours, 100 μM). In addition, the motility / vitality result in the data set with adult S. mansoni (24 hours, 100 μM) is “Trematodes moved only slightly and with twitching movements”; in the data set on adult S. mansoni (48 hours, 20 μM), “The trematodes barely moved”; in the data set with adult S. mansoni (48 hours, 100 μM), “All trematodes were dead”. Further, the couples detectable entry is reported as “in two of the groups each one couple was detected” in the data set on adult S. mansoni (setting [6]), “no couples could be observed in any of the groups” in the data set on adult S. mansoni (setting [7]) and “no couples could be observed in any of the groups” in the data set on adult S. mansoni (setting [8]). Besides, the IC50 in data set [2] (setting [9]) is 2.9 ng/mL; in data set [2] (setting [5]), 7.4 nM; with K562, 0.5 µg/mL (≈ 1.28 µM); in “Cytotoxicity HeLa”, 3.1 µg/mL (≈ 7.92 µM); with L929, 1.9 µg/mL (≈ 4.85 µM). Besides, in data set [3], the “life span in words” value was “considerably extended the life span”. Moreover, the “MSD (days)” value in data set [3] (oral 3 × 10 mg/kg) is reported as 8.7 (n = 3) days; in data set [3] (oral 3 × 30 mg/kg), 13 (n = 3) days; in data set [3] (oral 3 × 100 mg/kg), 15.33 (n = 3) days; in data set [3] (sc 3 × 10 mg/kg), 7 (n = 3) days; in data set [3] (sc 3 × 30 mg/kg) it was 14 (n = 3) days. Further, the “Activity (%)” value in data set [3] (oral 3 × 10 mg/kg) is 46.8%; in data set [3] (oral 3 × 30 mg/kg), 99.4%; in data set [3] (oral 3 × 100 mg/kg), 99.7%; in data set [3] (sc 3 × 10 mg/kg), 17.7%; in data set [3] (sc 3 × 30 mg/kg), 61.8%.
Take `COc1ccc2c(c1)CCC1C2CC[C@@]2(C)C1CC[C@@H]2NCc1cc2ccccc2cc1O` (stereo partly drawn) [Compound 18, 17β-[(3-Hydroxynaphth-2-yl)-methylamino]-3-methoxy-estra-1,3,5(10)-triene]: in the data set with adult S. mansoni, the “morphological alterations of the worms” value is given as “ventral bending”. The egg production result with adult S. mansoni (24 hours, 20 μM) was “Almost no eggs were detectable”; with adult S. mansoni (24 hours, 100 μM), “Almost no eggs were detectable”; in the data set on adult S. mansoni (48 hours, 20 μM) it was “No eggs were detectable”; in the data set with adult S. mansoni (48 hours, 100 μM), “No eggs were detectable”. Also, the motility / vitality result was “Males barely moved and showed only twitching” with adult S. mansoni (24 hours, 20 μM); “The trematodes rarely showed slightly twitching movements” in the data set with adult S. mansoni (24 hours, 100 μM); “all worms were dead” in the data set on adult S. mansoni (48 hours, 20 μM); “all worms were dead” in the data set on adult S. mansoni (48 hours, 100 μM). Also, the couples detectable result is given as “no couples could be detected” in the data set on adult S. mansoni (24 hours, 20 μM, 3 groups of 10 pairs); “no couples could be detected” in the data set on adult S. mansoni (setting [6]); “no couples could be observed in any of the groups” in the data set on adult S. mansoni (setting [7]); “no couples could be observed in any of the groups” in the data set on adult S. mansoni (setting [8]). Further, the IC50 in data set [2] (setting [9]) turned out to be 3.1 ng/mL; in data set [2] (setting [5]), 7 nM; in data set [4] it was 930 nM.
As for `COc1ccc2c(c1)CCC1C2CC[C@@]2(C)C1CC[C@H]2NCc1cc2ccccc2cc1O` (stereo partly drawn) [Compound 41, 17α-[(3-Hydroxy-naphth-2-yl)-methylamino]-3-methoxy-estra-1,3,5(10)-triene], in the data set with adult S. mansoni, the “morphological alterations of the worms” value is “dorsal bending”. The egg production result in the data set with adult S. mansoni (24 hours, 20 μM) is listed as “Almost no eggs could be detected; also recorded: Almost no eggs were detectable”; with adult S. mansoni (24 hours, 100 μM), “Almost no eggs could be detected”; in the data set with adult S. mansoni (48 hours, 20 μM), “No eggs were produced”; in the data set on adult S. mansoni (48 hours, 100 μM) it was “No eggs were detectable”. The motility / vitality entry in the data set with adult S. mansoni (24 hours, 20 μM) is “Males barely moved and showed only twitching; also recorded: Trematodes moved only slightly and with twitching movements”; in the data set with adult S. mansoni (24 hours, 100 μM), “Males showed almost no motility”; in the data set with adult S. mansoni (48 hours, 20 μM) it was “Single trematodes showed slightly twitching movements, while the rest was non-motile”; in the data set with adult S. mansoni (48 hours, 100 μM), “Some of the worms were already dead, while others were dying”. The couples detectable result in the data set with adult S. mansoni (setting [6]) was “only in one of the groups a couple was detectable”; with adult S. mansoni (setting [7]) it was “no couples could be observed in any of the groups”; in the data set on adult S. mansoni (setting [8]), “no couples could be observed in any of the groups”. Besides, the IC50 in data set [2] (setting [9]) stood at 1.9 ng/mL; in data set [2] (setting [5]), 4.4 nM; in data set [4], 3580 nM.

(Values after US9382288B2, “Derivatives of steroid benzylamines, having an antiparasitic antibacterial, antimycotic and/or antiviral action” (Justus-Liebig-Universitat Giessen, priority 2010, dated 2016).)
